Measurements: ChEMBL document CHEMBL3612012, “Identification of orally-bioavailable antagonists of the TRPV4 ion-channel” (Bioorg Med Chem Lett, 2015)

Tests used:
[1] = organism: Homo sapiens; experiment: Binding affinity to chloride channel (unknown origin) assessed as inhibition of control specific binding at 10 uM
[2] = target: Sodium-dependent noradrenaline transporter (Homo sapiens) (UniProt P23975); experiment: Binding affinity to human NE transporter assessed as inhibition of control specific binding at 10 uM
[3] = target: T1, Transient receptor potential cation channel subfamily V member 4 (Homo sapiens, UniProt Q9HBA0); experiment: Antagonist activity at human TRPV4 receptor expressed in HEK293 cells assessed as inhibition of EC80 of 4alpha-PDD-stimulated calcium flux after 10 mins; type: cell-based
T1 sequence (Q9HBA0 whole entry): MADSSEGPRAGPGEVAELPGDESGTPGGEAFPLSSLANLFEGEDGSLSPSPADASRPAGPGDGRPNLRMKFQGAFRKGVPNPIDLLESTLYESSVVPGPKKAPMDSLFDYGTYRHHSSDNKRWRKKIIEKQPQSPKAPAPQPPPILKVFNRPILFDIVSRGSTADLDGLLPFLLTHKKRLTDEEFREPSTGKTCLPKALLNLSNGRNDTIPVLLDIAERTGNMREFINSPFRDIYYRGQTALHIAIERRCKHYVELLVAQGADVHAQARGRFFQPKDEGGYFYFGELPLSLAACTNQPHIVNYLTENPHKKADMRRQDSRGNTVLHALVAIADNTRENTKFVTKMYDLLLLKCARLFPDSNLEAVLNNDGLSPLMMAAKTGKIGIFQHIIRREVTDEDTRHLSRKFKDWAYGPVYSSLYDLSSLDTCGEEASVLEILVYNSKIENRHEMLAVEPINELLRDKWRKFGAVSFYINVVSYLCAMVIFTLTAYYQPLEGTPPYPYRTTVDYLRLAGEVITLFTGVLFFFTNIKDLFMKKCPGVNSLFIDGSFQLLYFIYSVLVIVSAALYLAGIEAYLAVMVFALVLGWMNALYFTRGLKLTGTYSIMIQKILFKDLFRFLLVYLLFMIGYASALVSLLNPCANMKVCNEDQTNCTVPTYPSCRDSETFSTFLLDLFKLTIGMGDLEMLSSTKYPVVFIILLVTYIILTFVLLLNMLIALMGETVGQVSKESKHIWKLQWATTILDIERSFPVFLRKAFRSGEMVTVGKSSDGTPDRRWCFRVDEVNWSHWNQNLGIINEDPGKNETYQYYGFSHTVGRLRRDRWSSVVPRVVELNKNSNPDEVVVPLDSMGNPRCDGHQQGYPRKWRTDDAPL

[4] = Clearance in Wistar rat at 1.40 mg/kg, iv; type: ADME, organism-based; settings: in vivo, 1.4 mg/kg
[5] = AUC (infinity) in Wistar rat at 29.73 mg/kg, po; type: ADME, organism-based; parameters: dose 29.73 mg/kg, time infinity, route oral; settings: in vivo
[6] = Plasma protein binding in rat; type: ADME, cell-free; settings: read-out: PPB (converted)
[7] = Plasma protein binding in human; type: ADME, cell-free; settings: read-out: PPB (converted)
[8] = target: T1, Transient receptor potential cation channel subfamily V member 4; experiment: Antagonist activity at human TRPV4 expressed in HEK293 cells assessed as inhibition of 20% hypotonic solution-induced Ca2+ influx; type: cell-based
[9] = target: T2, Transient receptor potential cation channel subfamily V member 4 (Rattus norvegicus, UniProt Q9ERZ8); experiment: Antagonist activity at rat TRPV4 expressed in HEK293 cells assessed as inhibition of 20% hypotonic solution-induced Ca2+ influx; type: cell-based
T2 sequence (Q9ERZ8 whole entry): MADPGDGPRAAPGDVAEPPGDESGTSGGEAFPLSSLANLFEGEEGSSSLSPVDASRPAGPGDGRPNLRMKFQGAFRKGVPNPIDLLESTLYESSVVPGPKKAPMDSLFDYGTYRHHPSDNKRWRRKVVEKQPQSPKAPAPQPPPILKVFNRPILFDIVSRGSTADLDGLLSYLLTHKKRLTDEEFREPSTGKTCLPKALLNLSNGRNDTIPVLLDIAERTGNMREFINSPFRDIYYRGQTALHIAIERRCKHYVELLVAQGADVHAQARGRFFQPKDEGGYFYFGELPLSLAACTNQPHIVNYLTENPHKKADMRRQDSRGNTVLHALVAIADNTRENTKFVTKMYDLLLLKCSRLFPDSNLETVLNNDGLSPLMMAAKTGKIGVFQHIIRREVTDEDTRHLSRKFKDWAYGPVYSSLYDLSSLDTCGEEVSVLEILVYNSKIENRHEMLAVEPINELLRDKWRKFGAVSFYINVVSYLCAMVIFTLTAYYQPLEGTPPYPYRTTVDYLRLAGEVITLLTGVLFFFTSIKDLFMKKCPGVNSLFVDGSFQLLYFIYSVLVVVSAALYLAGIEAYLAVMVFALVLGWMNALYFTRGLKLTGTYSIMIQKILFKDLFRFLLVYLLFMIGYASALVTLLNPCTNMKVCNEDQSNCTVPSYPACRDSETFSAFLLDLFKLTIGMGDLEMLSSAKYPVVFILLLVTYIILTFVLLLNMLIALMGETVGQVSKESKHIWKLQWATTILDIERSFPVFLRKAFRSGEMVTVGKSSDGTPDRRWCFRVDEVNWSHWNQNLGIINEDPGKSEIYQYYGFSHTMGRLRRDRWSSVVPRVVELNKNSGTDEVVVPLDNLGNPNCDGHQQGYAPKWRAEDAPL

[10] = target: T2, Transient receptor potential cation channel subfamily V member 4; experiment: Antagonist activity at rat TRPV4 receptor expressed in HEK293 cells assessed as inhibition of 4alpha-PDD-stimulated calcium flux after 10 mins; type: cell-based
[11] = target: Transient receptor potential cation channel subfamily V member 4 (Mus musculus, UniProt Q9EPK8); experiment: Antagonist activity at mouse TRPV4 receptor expressed in HEK293 cells assessed as inhibition of 4alpha-PDD-stimulated calcium flux after 10 mins; type: cell-based
[12] = target: Transient receptor potential cation channel subfamily V member 3 (Homo sapiens, UniProt Q8NET8); experiment: Antagonist activity at human TRPV3 receptor expressed in HEK293 cells assessed as inhibition of capsaicin-stimulated calcium flux after 10 mins; type: cell-based
[13] = target: Transient receptor potential cation channel subfamily M member 8 (Homo sapiens, UniProt Q7Z2W7); experiment: Antagonist activity at human TRPM8 receptor expressed in HEK293 cells assessed as inhibition of menthol-stimulated calcium flux after 10 mins; type: cell-based
[14] = target: Adenosine receptor A1 (Homo sapiens) (UniProt P30542); experiment: Binding affinity to human adenosine A1 receptor assessed as inhibition of control specific binding at 10 uM
[15] = target: Adenosine receptor A2a (Homo sapiens) (UniProt P29274); experiment: Binding affinity to human adenosine A2A receptor assessed as inhibition of control specific binding at 10 uM
[16] = target: Adrenergic receptor alpha-1 (Homo sapiens) (UniProt P35348+P25100+P35368); experiment: Binding affinity to non-selective alpha1 adrenergic receptor (unknown origin) assessed as inhibition of control specific binding at 10 uM; type: protein assay
[17] = organism: Homo sapiens; experiment: Binding affinity to central benzodiazepine receptor (unknown origin) assessed as inhibition of control specific binding at 10 uM
[18] = target: Cholecystokinin receptor type A (Homo sapiens) (UniProt P32238); experiment: Binding affinity to human CCKA receptor assessed as inhibition of control specific binding at 10 uM
[19] = target: D(1A) dopamine receptor (Homo sapiens) (UniProt P21728); experiment: Binding affinity to human D1 receptor assessed as inhibition of control specific binding at 10 uM
[20] = target: C-X-C chemokine receptor type 2 (Homo sapiens) (UniProt P25025); experiment: Binding affinity to human CXCR2 receptor assessed as inhibition of control specific binding at 10 uM
[21] = target: C-C chemokine receptor type 1 (Homo sapiens) (UniProt P32246); experiment: Binding affinity to human CCR1 receptor assessed as inhibition of control specific binding at 10 uM
Chain of C-C chemokine receptor type 1 (Homo sapiens) (P32246 whole entry): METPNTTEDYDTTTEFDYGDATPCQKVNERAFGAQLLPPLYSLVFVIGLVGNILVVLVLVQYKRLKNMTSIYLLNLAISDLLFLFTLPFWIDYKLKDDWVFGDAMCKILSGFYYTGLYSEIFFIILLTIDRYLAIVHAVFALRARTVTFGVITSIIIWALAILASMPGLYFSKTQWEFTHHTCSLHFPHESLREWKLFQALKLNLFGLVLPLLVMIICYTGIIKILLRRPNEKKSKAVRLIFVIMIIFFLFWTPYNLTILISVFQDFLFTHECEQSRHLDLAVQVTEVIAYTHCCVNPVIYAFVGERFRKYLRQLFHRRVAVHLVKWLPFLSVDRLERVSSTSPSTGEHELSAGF

[22] = target: Histamine H1 receptor (Homo sapiens) (UniProt P35367); experiment: Binding affinity to human H1 receptor assessed as inhibition of control specific binding at 10 uM
Chain of Histamine H1 receptor (Homo sapiens) (P35367 whole entry): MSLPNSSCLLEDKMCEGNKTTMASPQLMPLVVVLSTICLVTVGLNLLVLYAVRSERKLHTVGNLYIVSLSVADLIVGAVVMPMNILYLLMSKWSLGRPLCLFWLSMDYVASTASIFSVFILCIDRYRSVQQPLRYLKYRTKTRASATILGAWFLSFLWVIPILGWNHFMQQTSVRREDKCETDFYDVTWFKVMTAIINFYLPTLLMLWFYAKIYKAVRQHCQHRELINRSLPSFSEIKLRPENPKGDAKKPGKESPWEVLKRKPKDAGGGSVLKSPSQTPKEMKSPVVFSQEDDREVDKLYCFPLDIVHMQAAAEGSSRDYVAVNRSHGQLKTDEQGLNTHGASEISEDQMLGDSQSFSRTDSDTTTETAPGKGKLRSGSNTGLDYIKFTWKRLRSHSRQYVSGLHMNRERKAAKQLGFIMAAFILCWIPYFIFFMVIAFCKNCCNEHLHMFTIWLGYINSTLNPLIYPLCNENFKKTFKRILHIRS

[23] = target: Melanocortin receptor 4 (Homo sapiens) (UniProt P32245); experiment: Binding affinity to human MC4 receptor assessed as inhibition of control specific binding at 10 uM
[24] = target: Melatonin receptor type 1A (Homo sapiens) (UniProt P48039); experiment: Binding affinity to human MT1 receptor assessed as inhibition of control specific binding at 10 uM
Chain of Melatonin receptor type 1A (Homo sapiens) (P48039 whole entry): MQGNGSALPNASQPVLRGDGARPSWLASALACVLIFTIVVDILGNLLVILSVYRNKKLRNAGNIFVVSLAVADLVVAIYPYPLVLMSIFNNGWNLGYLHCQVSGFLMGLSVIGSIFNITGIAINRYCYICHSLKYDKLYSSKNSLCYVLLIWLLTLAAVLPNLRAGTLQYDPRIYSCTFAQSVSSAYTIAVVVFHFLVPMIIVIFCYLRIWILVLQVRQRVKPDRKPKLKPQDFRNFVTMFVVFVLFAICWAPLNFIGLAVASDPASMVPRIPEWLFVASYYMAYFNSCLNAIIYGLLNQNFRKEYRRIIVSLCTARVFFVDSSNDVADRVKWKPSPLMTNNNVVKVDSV

[25] = target: Muscarinic acetylcholine receptor M1 (Homo sapiens) (UniProt P11229); experiment: Binding affinity to human M1 receptor assessed as inhibition of control specific binding at 10 uM
[26] = target: Neuropeptide Y receptor type 1 (Homo sapiens) (UniProt P25929); experiment: Binding affinity to human Y1 receptor assessed as inhibition of control specific binding at 10 uM
[27] = target: Neuropeptide Y receptor type 2 (Homo sapiens) (UniProt P49146); experiment: Binding affinity to human Y2 receptor assessed as inhibition of control specific binding at 10 uM
Chain of Neuropeptide Y receptor type 2 (Homo sapiens) (P49146 whole entry): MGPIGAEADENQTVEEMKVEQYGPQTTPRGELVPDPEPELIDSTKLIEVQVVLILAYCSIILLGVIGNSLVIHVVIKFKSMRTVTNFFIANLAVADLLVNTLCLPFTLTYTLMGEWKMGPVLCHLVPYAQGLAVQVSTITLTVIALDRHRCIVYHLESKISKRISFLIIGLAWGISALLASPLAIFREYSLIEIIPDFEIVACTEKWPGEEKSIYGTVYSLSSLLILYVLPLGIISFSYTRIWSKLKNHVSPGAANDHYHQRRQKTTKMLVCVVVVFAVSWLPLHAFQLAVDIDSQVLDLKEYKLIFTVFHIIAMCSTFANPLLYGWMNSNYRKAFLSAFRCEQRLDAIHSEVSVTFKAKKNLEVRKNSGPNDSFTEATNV

[28] = target: Neurotensin receptor type 1 (Homo sapiens) (UniProt P30989); experiment: Binding affinity to human NT1 receptor assessed as inhibition of control specific binding at 10 uM
[29] = target: Kappa-type opioid receptor (Homo sapiens) (UniProt P41145); experiment: Binding affinity to human kappa opioid receptor assessed as inhibition of control specific binding at 10 uM
Chain of Kappa-type opioid receptor (Homo sapiens) (P41145 whole entry): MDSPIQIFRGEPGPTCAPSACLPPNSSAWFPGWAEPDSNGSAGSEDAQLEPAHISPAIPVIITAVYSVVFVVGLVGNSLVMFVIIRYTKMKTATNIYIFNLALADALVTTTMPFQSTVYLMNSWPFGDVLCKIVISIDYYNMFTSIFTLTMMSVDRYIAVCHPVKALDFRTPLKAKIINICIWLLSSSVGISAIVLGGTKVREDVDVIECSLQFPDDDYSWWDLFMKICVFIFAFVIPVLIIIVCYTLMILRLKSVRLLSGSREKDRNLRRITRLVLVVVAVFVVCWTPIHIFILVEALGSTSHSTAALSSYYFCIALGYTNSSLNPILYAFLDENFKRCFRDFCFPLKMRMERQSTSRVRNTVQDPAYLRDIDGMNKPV

[30] = target: Mu-type opioid receptor (Homo sapiens) (UniProt P35372); experiment: Binding affinity to human mu opioid receptor agonist site assessed as inhibition of control specific binding at 10 uM
Chain of Mu-type opioid receptor (Homo sapiens) (P35372 whole entry): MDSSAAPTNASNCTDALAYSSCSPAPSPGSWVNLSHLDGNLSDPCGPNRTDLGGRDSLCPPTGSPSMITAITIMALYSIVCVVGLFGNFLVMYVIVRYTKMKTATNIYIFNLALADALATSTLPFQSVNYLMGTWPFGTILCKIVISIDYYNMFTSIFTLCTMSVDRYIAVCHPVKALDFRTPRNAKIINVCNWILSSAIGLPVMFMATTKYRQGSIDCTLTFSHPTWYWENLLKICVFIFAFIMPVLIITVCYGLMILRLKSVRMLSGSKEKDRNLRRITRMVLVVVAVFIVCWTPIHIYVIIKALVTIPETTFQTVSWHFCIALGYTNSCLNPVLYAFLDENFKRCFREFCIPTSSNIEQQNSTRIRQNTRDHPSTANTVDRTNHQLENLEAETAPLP

[31] = target: Nociceptin receptor (Homo sapiens) (UniProt P41146); experiment: Binding affinity to human ORL1 receptor assessed as inhibition of control specific binding at 10 uM
[32] = target: Thromboxane A2 receptor (Homo sapiens) (UniProt P21731); experiment: Binding affinity to human TP receptor assessed as inhibition of control specific binding at 10 uM
[33] = target: 5-hydroxytryptamine receptor 3A (Homo sapiens) (UniProt P46098); experiment: Binding affinity to human 5-HT3 receptor assessed as inhibition of control specific binding at 10 uM
[34] = target: 5-hydroxytryptamine receptor 5A (Homo sapiens) (UniProt P47898); experiment: Binding affinity to human 5-HT5A receptor assessed as inhibition of control specific binding at 10 uM
Chain of 5-hydroxytryptamine receptor 5A (Homo sapiens) (P47898 whole entry): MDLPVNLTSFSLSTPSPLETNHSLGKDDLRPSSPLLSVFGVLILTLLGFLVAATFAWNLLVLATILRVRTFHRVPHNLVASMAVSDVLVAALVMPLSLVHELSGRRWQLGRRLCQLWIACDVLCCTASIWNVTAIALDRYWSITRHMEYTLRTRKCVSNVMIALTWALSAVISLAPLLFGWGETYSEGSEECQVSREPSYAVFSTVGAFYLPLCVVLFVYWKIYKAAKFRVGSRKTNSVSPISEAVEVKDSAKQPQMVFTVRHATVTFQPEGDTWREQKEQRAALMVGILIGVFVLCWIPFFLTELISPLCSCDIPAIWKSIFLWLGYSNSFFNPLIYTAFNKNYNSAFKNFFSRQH

[35] = target: 5-hydroxytryptamine receptor 6 (Homo sapiens) (UniProt P50406); experiment: Binding affinity to human 5-HT6 receptor assessed as inhibition of control specific binding at 10 uM
[36] = target: 5-hydroxytryptamine receptor 7 (Homo sapiens) (UniProt P34969); experiment: Binding affinity to human 5-HT7 receptor assessed as inhibition of control specific binding at 10 uM
Chain of 5-hydroxytryptamine receptor 7 (Homo sapiens) (P34969 whole entry): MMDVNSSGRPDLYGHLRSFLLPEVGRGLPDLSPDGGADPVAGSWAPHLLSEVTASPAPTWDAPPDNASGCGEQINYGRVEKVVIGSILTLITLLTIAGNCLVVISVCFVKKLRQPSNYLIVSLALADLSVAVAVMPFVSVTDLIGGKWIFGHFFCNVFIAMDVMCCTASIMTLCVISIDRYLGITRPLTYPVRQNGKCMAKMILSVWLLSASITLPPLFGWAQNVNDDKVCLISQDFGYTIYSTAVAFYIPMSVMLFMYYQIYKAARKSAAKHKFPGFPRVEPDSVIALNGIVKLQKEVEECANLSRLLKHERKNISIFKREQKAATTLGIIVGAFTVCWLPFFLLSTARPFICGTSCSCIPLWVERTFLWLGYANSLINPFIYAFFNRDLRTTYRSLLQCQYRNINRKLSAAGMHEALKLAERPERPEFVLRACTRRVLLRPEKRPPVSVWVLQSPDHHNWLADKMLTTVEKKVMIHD

[37] = organism: Homo sapiens; experiment: Binding affinity to SST receptor (unknown origin) assessed as inhibition of control specific binding at 10 uM
[38] = organism: Homo sapiens; experiment: Binding affinity to SK+ calcium channel (unknown origin) assessed as inhibition of control specific binding at 10 uM
[39] = organism: Homo sapiens; experiment: Binding affinity to sodium channel site-2 (unknown origin) assessed as inhibition of control specific binding at 10 uM

Question: With `CC(C)N1CCN(S(=O)(=O)c2ccc(NC(=O)c3ccc(C(F)(F)F)cc3[N+](=O)[O-])cc2)CC1` as the molecule, how does the inhibition [1] read?
Answer: 24%

Question: What about the inhibition [2] of the same molecule?
Answer: 4%

Question: And the IC50 [3]?
Answer: 420 nM

Question: What about the clearance [4] of the same molecule?
Answer: 23.7 mL/min/kg

Question: What about the AUC(0-inf) [5] of the same molecule?
Answer: 10100 ng·h/mL

Question: And the fraction unbound [6]?
Answer: 0.01

Question: And the fraction unbound [7]?
Answer: 0.01

Question: What about the IC50 [8] of the same molecule?
Answer: 570 nM

Question: And the IC50 [9]?
Answer: 2100 nM

Question: And the IC50 [10]?
Answer: 120 nM

Question: What about the IC50 [11] of the same molecule?
Answer: 57 nM

Question: And the IC50 [12]?
Answer: > 30000 nM

Question: And the IC50 [13]?
Answer: 30000 nM

Question: What about the inhibition [14] of the same molecule?
Answer: 2%

Question: What about the inhibition [15] of the same molecule?
Answer: -7%

Question: What about the inhibition [16] of the same molecule?
Answer: 6%

Question: And the inhibition [17]?
Answer: 9%

Question: And the inhibition [18]?
Answer: 3%

Question: What about the inhibition [19] of the same molecule?
Answer: 1%

Question: What about the inhibition [20] of the same molecule?
Answer: -4%

Question: What about the inhibition [21] of the same molecule?
Answer: -5%

Question: What about the inhibition [22] of the same molecule?
Answer: 4%

Question: What about the inhibition [23] of the same molecule?
Answer: -8%

Question: And the inhibition [24]?
Answer: 5%

Question: And the inhibition [25]?
Answer: 76%

Question: And the inhibition [26]?
Answer: -8%

Question: What about the inhibition [27] of the same molecule?
Answer: 1%

Question: And the inhibition [28]?
Answer: -6%

Question: What about the inhibition [29] of the same molecule?
Answer: 3%

Question: And the inhibition [30]?
Answer: 9%

Question: What about the inhibition [31] of the same molecule?
Answer: -2%

Question: And the inhibition [32]?
Answer: -6%

Question: What about the inhibition [33] of the same molecule?
Answer: -3%

Question: And the inhibition [34]?
Answer: 0%

Question: And the inhibition [35]?
Answer: -2%

Question: And the inhibition [36]?
Answer: -5%

Question: What about the inhibition [37] of the same molecule?
Answer: -1%

Question: And the inhibition [38]?
Answer: -4%

Question: And the inhibition [39]?
Answer: 17%
